These results are taken from article PMC4457358, “Structure–activity studies in the development of a hydrazone based inhibitor of adipose-triglyceride lipase (ATGL)” (Bioorganic & Medicinal Chemistry, 2015).

pIC50: −log10 of the molar value.

One data set addresses T1, murine ATGL (Mus musculus, UniProt Q8BJ56).
T1 construct: expressed in transfected cells; host or cells: COS-7 (ATCC CRL-1651), transient transfection with Metafectene; crude lysate after 1000 x g spin
T1 sequence (Q8BJ56 1-486): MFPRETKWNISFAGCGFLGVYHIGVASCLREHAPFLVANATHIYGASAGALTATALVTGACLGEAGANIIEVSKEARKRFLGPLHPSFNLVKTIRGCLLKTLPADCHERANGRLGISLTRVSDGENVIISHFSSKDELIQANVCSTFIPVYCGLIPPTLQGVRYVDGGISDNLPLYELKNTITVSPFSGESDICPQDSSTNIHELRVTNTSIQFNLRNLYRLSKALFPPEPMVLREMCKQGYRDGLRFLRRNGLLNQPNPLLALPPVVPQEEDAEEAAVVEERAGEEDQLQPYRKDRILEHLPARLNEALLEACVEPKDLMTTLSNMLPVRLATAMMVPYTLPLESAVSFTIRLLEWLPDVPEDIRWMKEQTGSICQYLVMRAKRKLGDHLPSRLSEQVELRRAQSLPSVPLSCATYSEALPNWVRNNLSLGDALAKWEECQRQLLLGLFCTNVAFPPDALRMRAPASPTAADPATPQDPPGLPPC
The experiment in a line: Triglyceride hydrolase activity assay with COS7-cell lysate overexpressing recombinant murine ATGL, radiolabelled triolein substrate.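 As to all read-outs here: radioactivity from the triolein substrate quantified by liquid scintillation counting after phase separation, reflecting triglyceride hydrolase activity of murine ATGL in lysates of transfected COS-7 cells.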 The data set is classed as biochemical. On the set-up: IC50 (%): unit not given here. To be noted: for inhibition at 200 µM: 1 h, read-out: I200 (%); for inhibition at 200 µM / I200 (%): ATGL-inhibition efficiency at 200 μM inhibitor; for pIC50 / biological activity against ATGL (in words): COS7-cell lysate overexpressing murine ATGL; for IC50 (%): COS7-cell lysate overexpressing recombinant murine ATGL, increasing inhibitor concentrations.

Procedure for murine ATGL: All synthesized test compounds were screened for their efficiency to inhibit ATGL activity in vitro in an assay using radiolabelled triolein as substrate.[20] As ATGL cannot be purified, the assays were performed with COS7-cell lysates from cells overexpressing recombinant murine ATGL. For the determination of the IC50-value inhibitors were administered with increasing concentrations to the enzyme and its substrate. To determine the ATGL-inhibition efficiency at 200 μM (I200), 200 μM inhibitor was administered to the enzyme and its substrate.
For the determination of TG hydrolase activity cell lysates of COS-7 cells overexpressing recombinant murine ATGL were used. Therefore, monkey embryonic kidney cells (Cos-7; ATCC CRL-1651) were cultivated in Dulbeccos modified eagles medium (DMEM, GIBCO, Invitrogen Corp., Carlsbad, CA), containing 10% fetal calf serum (FCS, Sigma–Aldrich) and antibiotics (100 IU/mL penicillin and 100 μg/mL streptomycin) at standard conditions (37 °C, 5% CO2, 95% humidified atmosphere). Cells were transfected with 1 μg DNA complexed to Metafectene (Biontex GmbH, Munich, Germany) in serum free DMEM. After 4 h the medium was replaced by DMEM supplemented with 10% FCS. For the preparation of cell lysates, cells were washed with 1× phosphate buffered saline, collected using a cell scraper, and disrupted in buffer A (0.25 M sucrose, 1 mM EDTA, 1 mM dithiothreitol, 20 μg/mL leupeptine, 2 μg/mL antipain, 1 μg/mL pepstatin, pH 7.0) by sonication (Virsonic 475, Virtis, Gardiner, NJ). Nuclei and unbroken cells were removed by centrifugation (1000×g, 4 °C, for 10 min). Protein concentration of the cell lysates were determined by Bio-Rad protein assay according to the manufacturer’s protocol (Bio-Rad 785, Bio-Rad Laboratories, Munich, Germany), using BSA as standard.
The triolein (TO) substrate was prepared as described. […] In brief, 330 μM triolein (40,000 cpm/nmol) (GE Healthcare) was emulsified with 45 μM phosphatidylcholine/phosphatidylinositol (3:1) (Sigma) in 100 mM potassium phosphate buffer (pH 7.0) by sonication (Virsonic 475, Virtis) and was adjusted to 5% (w/v) fatty acid free bovine serum albumin (BSA, Sigma). 100 μL (20 μg protein) cell lysate or 2 μl purified recombinant LPL (Sigma–Aldrich) were incubated with 100 μL TO substrate in the presence or in the absence of inhibitors in a water bath for 1 h at 37 °C. After incubation, the reaction was terminated by adding 3.25 mL of methanol/chloroform/heptane (10:9:7) and 1 mL of 0.1 M potassium carbonate, 0.1 M boric acid (pH 10.5). After centrifugation (800 g, 15 min), the radioactivity in 1 mL of the upper phase was determined by liquid scintillation counting.

`COc1ccc(/C=N/N2CCN(c3ccccc3)CC2)cc1OC` [Compound 1b, (E)-N-(3,4-Dimethoxybenzylidene)-4-phenylpiperazin-1-amine]: the melting point lay within 153 to 154 °C. Also, at murine ATGL, the inhibition at 200 µM amounted to 65%.
The corresponding values for `COc1ccc(/C=N/N2CCN(c3ccccc3)CC2)cc1O` [Compound 1c, (E)-2-Methoxy-5-((4-phenylpiperazin-1-ylimino)methyl)phenol] are 180 °C (dec.) and 56%.
As for `COc1cc(/C=N/N2CCN(c3ccccc3)CC2)ccc1O` [Compound 1d, (E)-2-Methoxy-4-((4-phenylpiperazin-1-ylimino)methyl)phenol], the inhibition at 200 µM at murine ATGL was 82%.
For the compound `Oc1cccc(/C=N/N2CCN(c3ccccc3)CC2)c1` [Compound 1e, (E)-3-((4-Phenylpiperazin-1-ylimino)methyl)phenol], the melting point is 190 °C (dec.). At murine ATGL, the inhibition at 200 µM turned out to be 71%.
In turn, `Oc1ccccc1/C=N/N1CCN(c2ccccc2)CC1` [Compound 1f, (E)-2-((4-Phenylpiperazin-1-ylimino)methyl)phenol] displayed a melting point of 138 to 142 °C. For the same compound, at murine ATGL, the inhibition at 200 µM stood at 64%.
The corresponding values for `Oc1ccc(/C=N/N2CCN(c3ccccc3)CC2)cc1` [Compound 1g, (E)-4-((4-Phenylpiperazin-1-ylimino)methyl)phenol] are 192 °C (dec.) and 85%.
As for `COc1cc(OC)c(OC)cc1/C=N/N1CCN(c2ccccc2)CC1` [Compound 1k, (E)-4-Phenyl-N-(2,4,5-trimethoxybenzyliden)piperazin-1-amine], the melting point is 153 to 156 °C. The inhibition at 200 µM on murine ATGL was determined as 43%.
`COc1cc(/C=N/N2CCN(c3ccccc3)CC2)cc(OC)c1OC` [Compound 1l, (E)-4-Phenyl-N-(3,4,5-trimethoxybenzylidene)piperazin-1-amine]: the melting point was 93 to 98 °C. Moreover, the inhibition at 200 µM at murine ATGL was 41%.
As to `Fc1ccc(/C=N/N2CCN(c3ccccc3)CC2)cc1F` [Compound 1m, (E)-N-(3,4-Difluorobenzylidene)-4-phenylpiperazin-1-amine], the melting point is 152 to 154 °C. On murine ATGL, the inhibition at 200 µM was found to be 67% and the pIC50 is 4.12.
`Clc1ccc(/C=N/N2CCN(c3ccccc3)CC2)cc1Cl` [Compound 1n, (E)-N-(3,4-Dichlorobenzylidene)-4-phenylpiperazin-1-amine] yielded a melting point of 176 to 178 °C. At murine ATGL, the inhibition at 200 µM amounted to 20% and the “biological activity against ATGL (in words)” value (from here on “biological activity”) is “inactive”.
Compound `Clc1ccc(/C=N/N2CCN(c3ccccc3)CC2)c(Cl)c1` [Compound 1o, (E)-N-(2,4-Dichlorobenzylidene)-4-phenylpiperazin-1-amine] registered a melting point of 113 to 115 °C. The inhibition at 200 µM at murine ATGL was found to be 42%.
For `O=[N+]([O-])c1ccccc1/C=N/N1CCN(c2ccccc2)CC1` [Compound 1p, (E)-N-(2-Nitrobenzylidene)-4-phenylpiperazin-1-amine], in that order: 103 to 106 °C and 60%.
`Brc1ccccc1/C=N/N1CCN(c2ccccc2)CC1` [Compound 1q, (E)-N-(2-Bromobenzylidene)-4-phenylpiperazin-1-amine] gave a melting point of 88 to 90 °C. Moreover, the inhibition at 200 µM at murine ATGL is 73%.
In the case of `N#Cc1ccc(/C=N/N2CCN(c3ccccc3)CC2)cc1` [Compound 1s, (E)-4-((4-Phenylpiperazin-1-ylimino)methyl)benzonitrile], on murine ATGL, the inhibition at 200 µM was 76% and the pIC50 is 4.30.
Take `Cc1ccc(/C=N/N2CCN(c3ccccc3)CC2)cc1` [Compound 1t, (E)-N-(4-Methylbenzylidene)-4-phenylpiperazin-1-amine]: the melting point is 184 to 186 °C. Further, at murine ATGL, the inhibition at 200 µM turned out to be 22% and the “biological activity” value was “inactive”.
With `CN(C)c1ccc(/C=N/N2CCN(c3ccccc3)CC2)cc1` [Compound 1u, (E)-N-(4-(Dimethylamino)benzylidene)-4-phenylpiperazin-1-amine], the melting point was 190 °C (dec.). Further, at murine ATGL, the inhibition at 200 µM turned out to be 5%.
Regarding `CC(=O)Nc1ccc(/C=N/N2CCN(c3ccccc3)CC2)cc1` [Compound 1v, (E)-N-(4-((4-Phenylpiperazin-1-ylimino)methyl)phenyl)acetamide], on murine ATGL, the inhibition at 200 µM amounted to 14%.
Still for that read-out and setting: in the case of `CN(CCO)c1ccc(/C=N/N2CCN(c3ccccc3)CC2)cc1` [Compound 1w, (E)-2-(Methyl(4-((4-phenylpiperazin-1-ylimino)methyl)phenyl)amino)ethanol] it was 5%.
Compound `C(=N\N1CCN(c2ccccc2)CC1)/c1ccc2c(c1)OCO2` [Compound 1x, (E)-N-(Benzo[d][1,3]dioxol-5-ylmethylen)-4-phenylpiperazin-1-amine] displayed a melting point of 125 to 129 °C. In addition, at murine ATGL, the inhibition at 200 µM stood at 64%.
The corresponding values for `C(=N\N1CCN(c2ccccc2)CC1)/c1ccc2c(c1)OCCO2` [Compound 1y, (E)-N-((2,3-Dihydrobenzol[b][1,4]dioxin-6-yl)methylen)-4-phenylpiperazin-1-amine] are 186 to 187 °C and 27%.
The corresponding values for `O=c1[nH]c2ccc(/C=N/N3CCN(c4ccccc4)CC3)cc2[nH]1` [Compound 1z, (E)-5-((4-Phenylpiperazin-1-ylimino)methyl)-1H-benzo[d]imidazol-2(3H)-one] are 320 to 330 °C (dec.) and 16%.
For the compound `CCCC/C=N/N1CCN(c2ccccc2)CC1` [Compound 2a, (E)-N-Pentyliden-4-phenylpiperazin-1-amine], the inhibition at 200 µM at murine ATGL amounted to 12%.
With `CCC/C=C/C=N/N1CCN(c2ccccc2)CC1` [Compound 2b, (E)-N-((E)-Hex-2-enyliden)-4-phenylpiperazin-1-amine], the melting point amounted to 48 °C. Further, at murine ATGL, the inhibition at 200 µM came out at 12%.
The corresponding values for `C(=N\N1CCN(c2ccccc2)CC1)/C1CCCCC1` [Compound 2c, (E)-N-(Cyclohexylmethylen)-4-phenylpiperazin-1-amine] are 69 to 71 °C and 49%.
For `C1=C(/C=N/N2CCN(c3ccccc3)CC2)CCCC1` [Compound 2d, (E)-N-(Cyclohexenylmethylen)-4-phenylpiperazin-1-amine], the melting point lay in the range of 118 to 120 °C. At murine ATGL, the inhibition at 200 µM is 58% and the “biological activity” value is listed as “moderate activity”.
In the case of `C(=N\N1CCN(c2ccccc2)CC1)/c1ccccn1` [Compound 2e, (E)-4-Phenyl-N-(pyridine-2-ylmethylen)piperazin-1-amine], the melting point fell in the range of 117 to 119 °C. On murine ATGL, the inhibition at 200 µM is 16%.
The corresponding values for `C(=N\N1CCN(c2ccccc2)CC1)/c1cccnc1` [Compound 2f, (E)-4-Phenyl-N-(pyridine-3-ylmethylen)piperazin-1-amine] are 111 to 113 °C and 46%.
As for `C(=N\N1CCN(c2ccccc2)CC1)/c1ccncc1` [Compound 2g, (E)-4-Phenyl-N-(pyridine-4-ylmethylen)piperazin-1-amine], the melting point lay in the range of 156 to 158 °C. At murine ATGL, the inhibition at 200 µM is 60% and the “biological activity” value is “moderate activity”.
Regarding `C(=N\N1CCN(c2ccccc2)CC1)/c1ccc2ccccc2c1` [Compound 2h, (E)-N-(Naphthalene-2-ylmethylen)-4-phenylpiperazin-1-amine], the melting point was 195 to 198 °C (dec.). The inhibition at 200 µM on murine ATGL is below 1%.
`C(=N\N1CCN(c2ccccc2)CC1)/c1ccc2ccccc2n1` [Compound 2i, (E)-4-Phenyl-N-(quinoline-2-ylmethylen)-piperazin-1-amine] showed a melting point of 210 to 212 °C. For the same compound, at murine ATGL, the inhibition at 200 µM came out at 8%.
As to `Cc1cccc(N2CCN(/N=C/c3ccc(O)cc3O)CC2)c1` [Compound 3c, (E)-4-((4-m-Tolylpiperazin-1-ylimino)methyl)benzene-1,3-diol], the inhibition at 200 µM at murine ATGL was found to be 44%.
For the compound `Oc1ccc(/C=N/N2CCCN(c3ccccc3)CC2)c(O)c1` [Compound 3j, (E)-4-((4-Phenyl-1,4-diazepan-1-ylimino)methyl)benzene-1,3-diol], the inhibition at 200 µM on murine ATGL amounted to 87%.
On to `COc1ccc(C(=O)NN2CCN(c3ccccc3)CC2)cc1OC` [Compound 10, 3,4-Dimethoxy-N-(4-phenylpiperazin-1-yl)benzamide], for which, at murine ATGL, the inhibition at 200 µM was found to be 38% and the “biological activity” value was “inactive”.
Regarding “(E)-3-((4-Phenylpiperazin-1-ylimino)methyl)benzonitrile [Compound 1r]”, at murine ATGL, the “I200 (%)” value is listed as 60% and the “IC50 (%)” value is 120.
For “(E)-4-Phenyl-N-(4-propoxybenzylidene)piperazin-1-amine [Compound 1i]”, in that order: 14% and above 200.
For “(E)-N-(4-Phenoxybenzylidene)-4-phenylpiperazin-1-amine [Compound 1j]”, in that order: 24% and above 200.

The term melting point denotes the temperature of the solid-liquid transition. The term pIC50 denotes −log10 of the IC50, conventionally taken in molar units.
